Patent US9718813B2, “Imidazolin-5-one derivative useful as FASN inhibitors for the treatment of cancer” (Janssen Pharmaceutica, NV, priority 2013, dated 2017)

How the values were obtained:
[1] = test system: LNCaP_Vancouver prostate cells; assay: In Vitro LNCaP Vancouver Prostate Cell Proliferation Assay in Lipid Reduced Medium; type: cell-based; conditions: 10% lipid reduced serum, 96 h, ATP-glow
Protocol: LNCaP_Vancouver prostate cells were obtained from the Vancouver Prostate Cancer Centre.
(§1) Compounds were tested in duplicate. After 96 h incubation at 37° C., 5% CO2 25 μl ATP-glow mix was added. The plate was incubated for 30 min at 37° C. and luminescence was measured with the Envision.
(§2) pIC50 values were calculated as follows. Raw data generated by the instruments were normalized to % Controlmin values, which were calculated as: % Controlmin=100*(x−mLC)/(mHC−mLC),
(§3) where mLC and mHC are the means of the low control wells and high control wells on the plate, after manual exclusion of outliers. The relation between the % Controlmin values and concentration was fitted to a 4-parameter logistic curve using a non-linear least squares regression method to determine the pIC50 value. Outlying data points were excluded manually to get a correct fit. […] The IC50 parameter was always determined by non-linear regression, but one or more of the other parameters may have been held fixed on a relevant input value, such as 0 for the bottom values.

[2] = test system: PC-3M-Luc-C6 prostate cells; assay: In Vitro PC-3M-Luc-C6 Prostate Cell Proliferation Assay in Lipid Reduced Medium; type: cell-based; conditions: 96 h
Protocol: PC-3M-Luc-C6 prostate cells were obtained from Xenogen Corporation. […] The cells were passaged twice a week.
as §1, with “The next day 10 μl test compound/DMSO diluted in medium was added (3E-5M, 1E-5M, 3E-6M, 1E-6M, 3E-7M, 1E-7M, 3E-8M, 1E-8M final concentration). Compounds” for “Compounds”
as §2, §3

A2780 ovarian cells [3] = assay: A2780 Ovarian Cell Proliferation Assay in Lipid Reduced Medium, with Palmitate; type: cell-based; conditions: 10% lipid-reduced serum, 25 μM palmitate, 96 h, MTT
Protocol: (§4) The biological assays described below correspond to comparative assays for ovarian cell proliferation.
2500 cells were seeded in a 96-well clear well plate in 200 μL RPM11640 with 10% Fetal Calf Serum (Hyclone), and incubated at 37° C., 5% CO2. Blanks were wells without cells. The next day the culture medium was aspirated and replaced by 160 μL culture medium with 10% Lipid-Reduced Serum (LRS, Hyclone). […] After 96 h incubation, an MTT assay was performed.

A2780 ovarian cells [4] = assay: A2780 Ovarian Cell Proliferation Assay in Lipid Reduced Medium, without Palmitate; type: cell-based; conditions: 10% lipid-reduced serum, no palmitate, 96 h, MTT
Protocol: as §4
2500 cells were seeded in a 96-well clear well plate in 200 μL RPM11640 with 10% Fetal Calf Serum (Hyclone), and incubated at 37° C., 5% CO2. Blanks were wells without cells. The next day the culture medium was aspirated and replaced by 160 μL culture medium with 10% Lipid-Reduced Serum (LRS, Hyclone). 20 μL test compound (at concentrations of 30 μM, 10 μM, 3 μM, 1 μM, 0.30 μM, 0.10 μM, 0.03 μM and 0.01 μM)/DMSO dilution followed by 20 μL ethanol-BSA solution were added to a final concentrations of 0.2% DMSO, 0.2% fatty-acid-free BSA, 0.25% ethanol. After 96 h incubation an MTT assay was performed.
Raw data generated by the instrument were normalized to % Controlmin values, which were calculated as: % Controlmin=100*(x−mLC)/(mHC−mLC)
where mLC and mHC were the means of the low control wells and high control wells on the plate, after manual exclusion of outliers. A plot of Controlmin versus test compound concentration was fitted to a 4-parameter logistic curve using a non-linear least squares regression method.

[5] = target: FASN Keto-reductase Domain (hFASN enzyme, full length) (Homo sapiens (Human), UniProt P49327); assay: Fatty Acid Synthase Keto-reductase Domain (FASN KR) Inhibition; type: biochemical; conditions: NADPH oxidation at 340 nm, ethyl acetoacetate substrate
FASN Keto-reductase Domain (hFASN enzyme, full length), sequence (P49327 whole entry, the tested form may be a part): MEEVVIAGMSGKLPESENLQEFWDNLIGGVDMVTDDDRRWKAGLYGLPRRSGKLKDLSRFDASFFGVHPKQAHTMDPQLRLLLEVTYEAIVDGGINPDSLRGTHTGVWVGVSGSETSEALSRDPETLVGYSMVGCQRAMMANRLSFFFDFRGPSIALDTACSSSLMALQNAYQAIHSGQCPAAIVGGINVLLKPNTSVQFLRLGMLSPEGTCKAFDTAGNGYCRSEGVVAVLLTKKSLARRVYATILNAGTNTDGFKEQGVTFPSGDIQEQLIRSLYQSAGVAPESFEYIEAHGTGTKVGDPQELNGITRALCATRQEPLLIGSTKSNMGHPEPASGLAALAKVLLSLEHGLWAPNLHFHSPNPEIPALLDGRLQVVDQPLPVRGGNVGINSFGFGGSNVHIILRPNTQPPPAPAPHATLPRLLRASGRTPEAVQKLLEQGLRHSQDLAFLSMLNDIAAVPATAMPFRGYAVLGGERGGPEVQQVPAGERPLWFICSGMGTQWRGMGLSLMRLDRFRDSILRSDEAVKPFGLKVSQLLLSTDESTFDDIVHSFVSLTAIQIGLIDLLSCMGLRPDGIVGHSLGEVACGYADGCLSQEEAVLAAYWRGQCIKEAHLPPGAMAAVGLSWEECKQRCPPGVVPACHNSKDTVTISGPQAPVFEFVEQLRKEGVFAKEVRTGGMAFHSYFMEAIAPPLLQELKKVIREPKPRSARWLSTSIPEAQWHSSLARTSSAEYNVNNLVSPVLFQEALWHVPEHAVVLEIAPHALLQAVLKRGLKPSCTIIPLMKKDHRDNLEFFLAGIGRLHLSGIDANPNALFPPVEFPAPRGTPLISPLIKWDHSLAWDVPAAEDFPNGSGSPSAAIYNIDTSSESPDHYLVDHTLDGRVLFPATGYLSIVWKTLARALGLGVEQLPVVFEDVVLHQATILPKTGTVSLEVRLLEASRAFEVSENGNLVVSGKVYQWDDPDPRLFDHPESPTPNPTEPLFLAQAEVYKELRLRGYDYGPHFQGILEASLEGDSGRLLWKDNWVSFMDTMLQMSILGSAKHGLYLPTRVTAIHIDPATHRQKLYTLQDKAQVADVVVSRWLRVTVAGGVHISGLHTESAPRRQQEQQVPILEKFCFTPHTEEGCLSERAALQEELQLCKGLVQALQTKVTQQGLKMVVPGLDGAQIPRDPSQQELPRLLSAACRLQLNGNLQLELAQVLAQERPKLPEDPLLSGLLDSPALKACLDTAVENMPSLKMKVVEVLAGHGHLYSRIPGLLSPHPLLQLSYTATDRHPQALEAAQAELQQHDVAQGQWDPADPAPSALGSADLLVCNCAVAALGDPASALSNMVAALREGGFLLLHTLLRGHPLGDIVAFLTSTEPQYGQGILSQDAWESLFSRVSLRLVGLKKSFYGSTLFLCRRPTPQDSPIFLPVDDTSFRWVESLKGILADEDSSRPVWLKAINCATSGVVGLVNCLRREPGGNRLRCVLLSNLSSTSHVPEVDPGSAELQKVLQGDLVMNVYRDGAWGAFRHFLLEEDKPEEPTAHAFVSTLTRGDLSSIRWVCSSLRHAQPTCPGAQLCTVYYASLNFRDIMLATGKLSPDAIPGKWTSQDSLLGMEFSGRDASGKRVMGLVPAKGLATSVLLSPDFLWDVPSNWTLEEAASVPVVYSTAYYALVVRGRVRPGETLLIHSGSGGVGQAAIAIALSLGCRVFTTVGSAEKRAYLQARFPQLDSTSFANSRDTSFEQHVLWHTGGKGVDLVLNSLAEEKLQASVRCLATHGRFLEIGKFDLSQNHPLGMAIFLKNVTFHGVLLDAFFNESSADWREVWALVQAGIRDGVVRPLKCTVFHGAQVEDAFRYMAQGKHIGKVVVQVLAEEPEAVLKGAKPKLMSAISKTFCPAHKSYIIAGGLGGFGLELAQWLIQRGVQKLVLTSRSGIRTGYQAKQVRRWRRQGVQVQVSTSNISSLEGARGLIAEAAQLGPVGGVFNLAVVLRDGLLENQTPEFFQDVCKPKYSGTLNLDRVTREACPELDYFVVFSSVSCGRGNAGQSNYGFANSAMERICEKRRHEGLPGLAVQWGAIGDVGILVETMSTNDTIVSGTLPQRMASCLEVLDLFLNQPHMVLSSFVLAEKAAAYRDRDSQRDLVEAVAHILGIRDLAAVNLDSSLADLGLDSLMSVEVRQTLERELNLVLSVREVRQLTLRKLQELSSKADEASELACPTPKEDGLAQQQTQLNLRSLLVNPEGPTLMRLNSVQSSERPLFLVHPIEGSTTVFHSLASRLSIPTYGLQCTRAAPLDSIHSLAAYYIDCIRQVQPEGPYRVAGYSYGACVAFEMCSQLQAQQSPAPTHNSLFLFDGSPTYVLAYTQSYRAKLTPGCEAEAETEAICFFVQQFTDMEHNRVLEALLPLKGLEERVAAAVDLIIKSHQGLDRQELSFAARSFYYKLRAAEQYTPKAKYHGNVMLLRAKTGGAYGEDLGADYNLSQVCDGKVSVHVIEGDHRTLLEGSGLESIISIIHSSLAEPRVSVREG
In short: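 Absorbance was read before (T1) and after 20 min incubation at room temperature (T2), with the decrease T1−T2 as signal. Data were normalized to plate high and low controls as % Controlmin; IC50 came from a 4-parameter logistic fit of Controlmin versus compound concentration.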

[6] = target: hFASN enzyme (full length) (Homo sapiens (Human), UniProt P49327); assay: Fatty Acid Synthase (FASN) Inhibition Scintillation Proximity Assay; type: biochemical; conditions: 3H-acetyl-CoA and malonyl-CoA substrates, SPA, mean if tested more than once
hFASN enzyme (full length), sequence (P49327 whole entry): as the sequence (P49327 whole entry, the tested form may be a part) above
In short: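 Full-length human FASN (300 ng, in-house purified) in 100 mM KH2PO4 pH 7.5, 1 mM DTT converts 3H-acetyl-CoA plus malonyl-CoA to hydrophobic 3H-palmitate, captured by streptavidin imaging beads and read on LEADseeker at 610 nm after ≥24 h. Compounds tested 0.01–30 μM; data normalized to plate controls and fitted to 4-parameter logistic curves.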

pIC50 LNCaP_Vancouver prostate cell [1]	pIC50 PC-3M-Luc-C6 prostate cell ([2]; 10% lipid reduced serum, ATP-glow)	pIC50 With Palmitate (A2780 ovarian cells [3])	pIC50 Without Palmitate (A2780 ovarian cells [4])	IC50 ([1]; Prostate cell, read-out: pIC50 LNCaP_Vancouver prostate cell (converted)) [nM]	IC50 ([2]; Prostate cell, read-out: pIC50 PC-3M-Luc-C6 prostate cell, 10% lipid reduced serum, 96 h, ATP-glow (converted)) [nM]	FASN Keto-reductase Domain pIC50 [5]	Human FASN pIC50 [6]	SMILES
6.87	7.04	<5	7.19	–	–	–	–	Cn1ncc2cc(-c3ccc(C4=NC(C)(C)C(=O)N4CC4CN(C(=O)C5CC5)C4)c(F)c3)ccc21 [Compound 69, 1-((1-(cyclopropanecarbonyl)azetidin-3-yl)methyl)-2-(2-fluoro-4-(1-methyl-1H-indazol-5-yl)phenyl)-4,4-dimethyl-1H-imidazol-5(4H)-one]
–	–	–	–	2340	871	5.93	6.11	CC1(C)N=C(c2ccc(-c3ccc4cncnc4c3)cc2F)N(CC2CN(C(=O)C3CC3)C2)C1=O [Compound 43, 1-((1-(cyclopropanecarbonyl)azetidin-3-yl)methyl)-2-(2-fluoro-4-(quinazolin-7-yl)phenyl)-4,4-dimethyl-1H-imidazol-5(4H)-one]
